Measurements published in US20260102383A1, “LPAR1 Inhibitors” (AbbVie Inc., priority 2024, published 2026).

Molecular target: T1, human LPAR1 (Homo sapiens, UniProt Q92633)
T1 construct: host or cells: TangoEDG2-bla U2OS cells
Test: Arrestin assay (Arrestin Reporter EDG2-bla U2OS), inhibition of LPA-stimulated signal
Type: cell-based
Conditions: TangoEDG2-bla U2OS cells expressing human LPAR1; 0.25 μM LPA; read-out: Arrestin Reporter EDG2-bla U2OS Human Merged IC50
Protocol: The inhibitory activity of compounds 15, 62, 77, 84 and 169 against LPAR1 was measured using an Arrestin assay in U2OS cells expressing human LPAR1.
FreeStyle media was warmed in a 37° C. water bath. Cryo-preserved vial(s) of TangoEDG2-bla U2OS cells were rapidly thawed in a 37° C. water bath. The thawed cells were added to FreeStyle media and cells were pelleted at 300×g for 5 minutes. The supernatant was aspirated, and cells were resuspended in FreeStyle media. Cell density was adjusted to 0.25×10^6 cells/mL. Cells (1×10^4 in 40 μL) were added to each well of Greiner 384 well black cell plate(s). Cell plate(s) were placed in a humidified 37° C./5% CO2 incubator for 18-20 hours. Dilutions of test compound were prepared at 6× final concentration; 12-point, 3-fold dilutions using HH Buffer (1×HBSS plus 20 mM HEPES). The 6× test compound was then added to the cell plate(s) at 10 μL/well. The final concentration ranged from 10 μM to 0.00006 μM. Cell plate(s) were incubated in a humidified 37° C./5% CO2 incubator for 1 hour. During the incubation, 6×LPA was prepared at 1.5 μM in 0.1% BSA HH Buffer. After the 1-hour incubation of test compound with cells, the LPA was added to the cell plate(s) at 10 μL/well (final LPA concentration of 0.25 μM). Cell plate(s) were returned to a humidified 37° C./5% CO2 incubator for 3 hours. The Development solution was made up per the LiveBLAzerFRET B/G kit protocol. The Development solution was added to the cell plate(s) at 10 μL/well. Cell plates were incubated in the dark at room temperature for 2 hours. Plate(s) were read on an Envision Plate Reader (Perkin Elmer) to read fluorescence; excitation at 409 nm with emission at 460 nm and 530 nm. Raw Data for analysis is the ratio of emission at 460 nm divided by emission 530 nm. The formula used to determine % Inhibition is as follows (1−(Raw Data−Low Average)/(High Average−Low Average))*100. Percent Inhibition was plotted to determine IC50 value with GraphPad Prism 9.5.0 software using Variable slope 4-parameter curve fit analysis.
Additional compounds of the present disclosure were synthesized in a manner similar to the compounds described above and understood by a person of ordinary skill in the art. The inhibitory activity of the compounds of the present disclosure against LPAR1 was measured using the above-referenced Arrestin Assay protocol.

T1 sequence (Q92633 whole entry): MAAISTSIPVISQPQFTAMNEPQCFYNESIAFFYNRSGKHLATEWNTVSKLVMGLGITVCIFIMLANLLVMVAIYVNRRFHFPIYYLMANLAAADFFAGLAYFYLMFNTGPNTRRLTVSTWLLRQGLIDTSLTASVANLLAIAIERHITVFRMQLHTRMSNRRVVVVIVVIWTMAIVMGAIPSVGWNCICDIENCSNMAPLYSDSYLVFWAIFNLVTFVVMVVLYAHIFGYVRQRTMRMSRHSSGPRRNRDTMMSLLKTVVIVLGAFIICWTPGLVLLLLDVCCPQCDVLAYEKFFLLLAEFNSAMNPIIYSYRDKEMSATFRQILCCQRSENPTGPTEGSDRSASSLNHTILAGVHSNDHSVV

SMILES	IC50 [nM]
CC(C)c1ccnn1C1(C(=O)Nc2ccc(Cl)cc2OC(F)F)CCN(C2COC(C(=O)O)C2)CC1 (stereo not drawn) [Compound 113, 4-[4-[[4-chloro-2-(difluoromethoxy)phenyl]carbamoyl]-4-(5-isopropylpyrazol-1-yl)-1-piperidyl]tetrahydrofuran-2-carboxylic acid]	141
COc1cnn(CC(CN2CCC(C(=O)Nc3ccc(Cl)cc3OC(F)F)(n3nccc3C(C)C)CC2)C(=O)O)c1 (stereo not drawn) [Compound 193, 2-[[4-[[4-chloro-2-(difluoromethoxy)phenyl]carbamoyl]-4-(5-isopropylpyrazol-1-yl)-1-piperidyl]methyl]-3-(4-methoxypyrazol-1-yl)propanoic acid]	31.3
COC1(C(=O)O)CC(N2CCC(C(=O)Nc3ccc(Cl)cc3OC(F)F)(n3ncc(F)c3C(C)C)CC2)C1 (stereo not drawn) [Compound 199, 3-[4-[[4-chloro-2-(difluoromethoxy)phenyl]carbamoyl]-4-(4-fluoro-5-isopropyl-pyrazol-1-yl)-1-piperidyl]-1-methoxy-cyclobutanecarboxylic acid]	40.4
CC(C)c1ccnn1C1(C(=O)Nc2ccc(Cl)cc2OC(F)F)CCN(CC2(C(=O)O)CC3CCC2C3)CC1 (stereo not drawn) [Compound 70, 2-[[4-[[4-chloro-2-(difluoromethoxy)phenyl]carbamoyl]-4-(5-isopropylpyrazol-1-yl)-1-piperidyl]methyl]norbomane-2-carboxylic acid]	11.4
COC[C@H](CN1CCC(C(=O)Nc2ccc(Cl)cc2OC(F)F)(n2ncc(F)c2C(C)C)CC1)C(=O)O (single isomer, unassigned) [Compound 170]	33.1
CC1CCc2cnn(C3(C(=O)Nc4ccc(Cl)cc4OC(F)F)CCN(CC4(C(=O)O)CCOCC4)CC3)c21 (stereo not drawn) [Compound 91, 4-[[4-[[4-chloro-2-(difluoromethoxy)phenyl]carbamoyl]-4-(6-methyl-5,6-dihydro-4H-cyclopenta[e]pyrazol-1-yl)-1-piperidyl]methy] tetrahydropyran-4-carboxylic acid]	23
CC(=O)N1CCC(CN2CCC(C(=O)Nc3ccc(Cl)cc3OC(F)F)(n3nccc3C(C)C)CC2)(C(=O)O)CC1 [Compound 5, 1-acetyl-4-[[4-[[4-chloro-2-(difluoromethoxy)phenyl]carbamoyl]-4-(5-isopropylpyrazol-1-yl)-1-piperidyl]methyl]piperidine-4-carboxylic acid]	87.3
CC(C)CC(=O)N1CCC(CN2CCC(C(=O)Nc3ccc(Cl)cc3OC(F)F)(n3nccc3C(C)C)CC2)(C(=O)O)CC1 [Compound 82, 4-[[4-[[4-chloro-2-(difluoromethoxy)phenyl]carbamoyl]-4-(5-isopropylpyrazol-1-yl)-1-piperidyl]methyl]-1-(3-methylbutanoyl)piperidine-4-carboxylic acid]	21.9
CC(C)c1c(Cl)cnn1C1(C(=O)Nc2ccc(Cl)cc2OC(F)F)CCN(C[C@H](C(=O)O)C2CCOCC2)CC1 (single isomer, unassigned) [Compound 198]	31.2
CC(C)c1ccnn1C1(C(=O)Nc2ccc(Cl)cc2OC(F)F)CCN(CC2(C(=O)O)CCN(C(=O)CC3CC3)CC2)CC1 [Compound 48]	44
CC(C)c1ccnn1C1(C(=O)Nc2ccc(Cl)cc2OC(F)F)CCN(CC2(C(=O)O)CC3(COC3)C2)CC1 [Compound 40, 6-[[4-[[4-chloro-2-(difluoromethoxy)phenyl]carbamoyl]-4-(5-isopropylpyrazol-1-yl)-1-piperidyl]methyl]-2-oxaspiro[3.3]heptane-6-carboxylic acid]	22.5
COC1CN([C@@H](CN2CCC(C(=O)Nc3ccc(Cl)cc3OC(F)F)(n3nccc3C(C)C)CC2)C(=O)O)C1 [Compound 178, (2S)-3-[4-[[4-chloro-2-(difluoromethoxy)phenyl]carbamoyl]-4-(5-isopropylpyrazol-1-yl)-1-piperidyl]-2-(3-methoxyazetidin-1-yl)propanoic acid]	123
